From PubChem BioAssay AID192 (DTP/NCI, 2004)
Several values for one entry are separate records, joined by “and”; a condition that tells them apart may be missing. Equal values may be shown once. Inconclusive results and toxic doses are left out. Rule for the calls: active = survival T/C of 150% or more; inactive = T/C below 125% in these data.

Test system: BDF1 mice, B16 melanoma ip, median survival T/C
Assay: NCI In Vivo Anticancer Drug Screen. Data for tumor model B16 Melanoma (intraperitoneal) in B6D2F1 (BDF1) mice
Conditions: endpoint: median survival time, higher = longer survival
Outline: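 Antitumor activity is assessed in mice bearing a transplanted tumor, with survival or tumor size compared against vehicle-dosed controls and expressed as T/C.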

[1] = dose: 100.0 mg/kg/injection, schedule: Q01DX009 (ip), vehicle: saline
[2] = dose: 100.0 mg/kg/injection, schedule: Q01DX009 (ip), vehicle: Klucel (hydroxypropylcellulose) (HPC)
[3] = dose: 200.0 mg/kg/injection, schedule: Q01DX009 (ip), vehicle: Klucel (hydroxypropylcellulose) (HPC)
[4] = dose: 400.0 mg/kg/injection, schedule: Q01DX009 (ip), vehicle: Klucel (hydroxypropylcellulose) (HPC)
[5] = dose: 100.0 mg/kg/injection, schedule: Q04DX003 (ip), vehicle: Klucel (hydroxypropylcellulose) (HPC)
[6] = dose: 1.56 mg/kg/injection, schedule: Q01DX009 (ip), vehicle: saline
[7] = dose: 3.12 mg/kg/injection, schedule: Q01DX009 (ip), vehicle: saline
[8] = dose: 25.0 mg/kg/injection, schedule: Q01DX009 (ip), vehicle: saline with Tween-80
[9] = dose: 50.0 mg/kg/injection, schedule: Q01DX009 (ip), vehicle: saline with Tween-80
[10] = dose: 100.0 mg/kg/injection, schedule: Q01DX009 (ip), vehicle: saline with Tween-80
[11] = dose: 6.25 mg/kg/injection, schedule: Q01DX009 (ip), vehicle: saline

Measured: T/C

NC(=O)c1csc(C2OC(CO)C(O)C2O)n1 (stereo not given)
inactive: dose: 25.0 mg/kg/injection, schedule: Q01DX009 (ip), vehicle: water 103 % of control | dose: 50.0 mg/kg/injection, schedule: Q01DX009 (ip), vehicle: water 99 % of control | dose: 100.0 mg/kg/injection, schedule: Q01DX009 (ip), vehicle: water 104 % of control | dose: 200.0 mg/kg/injection, schedule: Q01DX009 (ip), vehicle: water 111 % of control | dose: 400.0 mg/kg/injection, schedule: Q01DX009 (ip), vehicle: water 110 % of control | dose: 800.0 mg/kg/injection, schedule: Q01DX009 (ip), vehicle: water 99 % of control

COc1ccc(CN(CCOC(=O)c2ccc(OC)cc2)CCN(CCOC(=O)c2ccc(OC)cc2)Cc2ccc(OC)cc2)cc1
inactive: dose: 3.12 mg/kg/injection, schedule: Q01DX009 (ip), vehicle: other 100 % of control | dose: 6.25 mg/kg/injection, schedule: Q01DX009 (ip), vehicle: other 89 % of control | dose: 12.5 mg/kg/injection, schedule: Q01DX009 (ip), vehicle: other 90 % of control | dose: 25.0 mg/kg/injection, schedule: Q01DX009 (ip), vehicle: other 92 % of control

Cc1cc(C)c(C(=O)O)c(C)c1Br
inactive: dose: 100.0 mg/kg/injection, schedule: Q04DX003 (ip), vehicle: saline with Tween-80 102 % of control | dose: 200.0 mg/kg/injection, schedule: Q04DX003 (ip), vehicle: saline with Tween-80 97 % of control | dose: 400.0 mg/kg/injection, schedule: Q04DX003 (ip), vehicle: saline with Tween-80 100 % of control

O=C(O)C1(NO)CCCC1
inactive: [1] 87 % of control

CCC(=O)C(CC)c1ccc(OC)cc1OC (stereo not given)
inactive: [2] 96 % of control | [3] 103 % of control | [4] 100 % of control

CCCCn1cnc2c(N)ncnc21
inactive: dose: 12.5 mg/kg/injection, schedule: Q01DX009 (ip), vehicle: Klucel (hydroxypropylcellulose) (HPC) 92 % of control | dose: 50.0 mg/kg/injection, schedule: Q01DX009 (ip), vehicle: Klucel (hydroxypropylcellulose) (HPC) 87 % of control

Cc1ccc(S(=O)(=O)N2CCCC(Br)(Br)C(=O)c3ccccc32)cc1
inactive: dose: 25.0 mg/kg/injection, schedule: Q04DX003 (ip), vehicle: Klucel (hydroxypropylcellulose) (HPC) 95 % of control | dose: 50.0 mg/kg/injection, schedule: Q04DX003 (ip), vehicle: Klucel (hydroxypropylcellulose) (HPC) 96 % of control | [5] 93 % of control

CN(C)CC/C=C1\c2ccccc2Sc2ccc(C(F)(F)F)cc21
inactive: dose: 0.19 mg/kg/injection, schedule: Q01DX009 (ip), vehicle: saline 105 % of control | dose: 0.39 mg/kg/injection, schedule: Q01DX009 (ip), vehicle: saline 122 % of control | dose: 0.78 mg/kg/injection, schedule: Q01DX009 (ip), vehicle: saline 111 % of control | [6] 108 % of control | [7] 105 % of control | dose: 6.12 mg/kg/injection, schedule: Q01DX009 (ip), vehicle: saline 90 % of control

CC(O)C(O)C=O (stereo not given)
inactive: dose: 248.0 mg/kg/injection, schedule: Q01DX009 (ip), vehicle: saline 108 % of control | dose: 346.0 mg/kg/injection, schedule: Q01DX009 (ip), vehicle: saline 97 % of control | dose: 576.0 mg/kg/injection, schedule: Q01DX009 (ip), vehicle: saline 104 % of control

Cc1ccc(Cl)cc1NC(=O)COc1ccc(Cl)cc1
inactive: [8] 92 % of control | [9] 91 % of control | [10] 88 % of control

O=C(O)CC(NC(=O)OCc1ccccc1)C(=O)O (stereo not given)
inactive: [6] 98 % of control | [7] 104 % of control | [11] 92 % of control

CCOC(=O)C(C(=O)OCC)N(CC)CC
inactive: [2] 93 % of control | [3] 90 % of control | [4] 100 % of control

CCn1c(O)c(C=N)c(=O)n(CC)c1=O
inactive: dose: 150.0 mg/kg/injection, schedule: Q04DX003 (ip), vehicle: Klucel (hydroxypropylcellulose) (HPC) 90 % of control

NC(Cc1cc(Cl)c(O)c(Cl)c1)C(=O)O (stereo not given)
inactive: [1] 94 % of control | dose: 150.0 mg/kg/injection, schedule: Q01DX009 (ip), vehicle: saline 100 % of control | dose: 200.0 mg/kg/injection, schedule: Q01DX009 (ip), vehicle: saline 98 % of control

Cc1ccc(NC(=O)c2cccc(C(=O)Nc3ccc(C)c(C)c3)c2)cc1C
inactive: [5] 97 % of control | dose: 200.0 mg/kg/injection, schedule: Q04DX003 (ip), vehicle: Klucel (hydroxypropylcellulose) (HPC) 90 % of control | dose: 400.0 mg/kg/injection, schedule: Q04DX003 (ip), vehicle: Klucel (hydroxypropylcellulose) (HPC) 93 % of control

CC(C)CN(CC(C)C)c1ccc([N+](=O)[O-])cc1[N+](=O)[O-]
inactive: dose: 6.25 mg/kg/injection, schedule: Q01DX009 (ip), vehicle: saline with Tween-80 105 % of control | dose: 12.5 mg/kg/injection, schedule: Q01DX009 (ip), vehicle: saline with Tween-80 107 % of control | [8] 87 % of control and 114 % of control | [10] 105 % of control | dose: 400.0 mg/kg/injection, schedule: Q01DX009 (ip), vehicle: saline with Tween-80 86 % of control

Cc1nnc(NC(=O)CCl)s1
inactive: [8] 97 % of control | [9] 105 % of control | [10] 97 % of control

CN(C)CCCN1c2ccccc2Sc2c(Cl)cc(Cl)cc21
inactive: [7] 97 % of control | [11] 105 % of control | dose: 12.5 mg/kg/injection, schedule: Q01DX009 (ip), vehicle: saline 102 % of control | dose: 25.0 mg/kg/injection, schedule: Q01DX009 (ip), vehicle: saline 87 % of control

CCCCC[C@H](O)/C=C/[C@H]1[C@H](O)CC(=O)[C@@H]1C/C=C\CCCC(=O)O
inactive: dose: 0.75 mg/kg/injection, schedule: Q04DX002 (ip), vehicle: Klucel (hydroxypropylcellulose) (HPC) 108 % of control | dose: 1.5 mg/kg/injection, schedule: Q04DX002 (ip), vehicle: Klucel (hydroxypropylcellulose) (HPC) 97 % of control | dose: 3.0 mg/kg/injection, schedule: Q04DX002 (ip), vehicle: Klucel (hydroxypropylcellulose) (HPC) 96 % of control | dose: 6.0 mg/kg/injection, schedule: Q04DX002 (ip), vehicle: Klucel (hydroxypropylcellulose) (HPC) 92 % of control | dose: 12.5 mg/kg/injection, schedule: Q04DX002 (ip), vehicle: other 96 % of control | dose: 24.0 mg/kg/injection, schedule: Q04DX002 (ip), vehicle: Klucel (hydroxypropylcellulose) (HPC) 103 % of control | dose: 25.0 mg/kg/injection, schedule: Q04DX002 (ip), vehicle: other 91 % of control | dose: 100.0 mg/kg/injection, schedule: Q04DX002 (ip), vehicle: other 96 % of control | dose: 200.0 mg/kg/injection, schedule: Q04DX002 (ip), vehicle: other 96 % of control

CCCCCCCC/C=C\CCCCCCCCN1CC(C(=O)[O][Pb]([CH2]C)([CH2]C)[CH2]C)CC1=O (stereo not given)
inactive: dose: 0.75 mg/kg/injection, schedule: Q01DX009 (ip), vehicle: saline with Tween-80 107 % of control | dose: 1.5 mg/kg/injection, schedule: Q01DX009 (ip), vehicle: saline with Tween-80 106 % of control | dose: 3.0 mg/kg/injection, schedule: Q01DX009 (ip), vehicle: saline with Tween-80 102 % of control | dose: 6.0 mg/kg/injection, schedule: Q01DX009 (ip), vehicle: saline with Tween-80 107 % of control

CS(=O)(=O)ON1C(=O)c2ccccc2C1=O
inactive: dose: 1.56 mg/kg/injection, schedule: Q01DX009 (ip), vehicle: Klucel (hydroxypropylcellulose) (HPC) 100 % of control | dose: 3.12 mg/kg/injection, schedule: Q01DX009 (ip), vehicle: Klucel (hydroxypropylcellulose) (HPC) 98 % of control | dose: 6.25 mg/kg/injection, schedule: Q01DX009 (ip), vehicle: Klucel (hydroxypropylcellulose) (HPC) 94 % of control
